Values quoted from earlier work in patent US9433581B2, “Poly(vinyl benzoate) nanoparticles for molecular delivery” (University of South Florida, priority 2010, dated 2016).

Details: octanol/water, reported in the literature

Log P	Molecule
5.43	5(6)-carboxyfluorescein
−3.45	CCN(CC)c1ccc2cc(-c3nc4ccccc4s3)c(=O)oc2c1 [Coumarin-6, coumarin-6]
